Test results taken from US20230066011A1, “PYRROLOPYRIMIDINE DERIVATIVE, AND PHARMACEUTICAL COMPOSITION FOR PREVENTING OR TREATING PROTEIN KINASE-RELATED DISEASE COMPRISING SAME AS ACTIVE INGREDIENT” (VORONOI CO., LTD., priority 2019, published 2023).

Columns and labels:
[1] = biological target: T1, human GST-DYRK1A (Homo sapiens, UniProt Q13627); assay: GST-DYRK1A enzyme inhibition, ADP-Glo kinase assay; type: biochemical; settings: ATP 10 μM, GST-DYRK1A full length, read-out: DYRK1 IC50
T1 construct: purified human GST-DYRK1A (full length, Thermo Scientifics) enzyme; purchased Thermo Scientifics
Outline: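 Full-length enzyme (10 ng) was incubated with 10 μM ATP and a specific substrate for 1 h at 25 °C in 40 mM Tris-HCl pH 7.4, 20 mM MgCl2, 0.5 mg/mL BSA, 50 μM DTT. Luminescence was read against a solvent control, and IC50 values were derived from 3 data sets.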

[2] = biological target: T2, human GST-CLK1 (Homo sapiens, UniProt P49759); assay: GST-CLK1 enzyme inhibition, ADP-Glo kinase assay; type: biochemical; settings: ATP 10 μM, GST-CLK1 129-end
T2 construct: purified human GST-CLK1 (129-end, SignalChem) enzyme; purchased SignalChem
T2 sequence (P49759 129-484 limits assumed): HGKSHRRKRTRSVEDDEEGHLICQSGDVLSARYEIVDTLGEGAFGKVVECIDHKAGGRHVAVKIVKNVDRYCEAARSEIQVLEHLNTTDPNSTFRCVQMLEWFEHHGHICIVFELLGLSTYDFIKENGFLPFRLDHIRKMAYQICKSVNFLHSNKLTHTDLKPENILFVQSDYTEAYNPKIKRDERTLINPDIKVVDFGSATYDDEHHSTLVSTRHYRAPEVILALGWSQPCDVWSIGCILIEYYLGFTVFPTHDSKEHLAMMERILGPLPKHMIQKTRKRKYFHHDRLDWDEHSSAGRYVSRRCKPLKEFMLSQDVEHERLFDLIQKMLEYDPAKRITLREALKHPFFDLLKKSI
Outline: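 ADP-Glo luminescence read-out, relative to untreated solvent control, gave IC50 (nM) from triplicate data sets. Reactions ran an hour at 25° C with 3 ng GST-CLK1 (residues 129-end), 10 μM ATP and specific substrate in Tris-HCl pH 7.4 buffer with MgCl2, BSA and DTT.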

SMILES: N#Cc1c[nH]c2nc(Nc3ccc(C(=O)N4CC(CO)(CO)C4)c4c3OCCO4)nc(N[C@H]3CCOC3)c12 [Example 336, (S)-2-((8-(3,3-bis (hydroxymethyl)azetidine-1-carbonyl)-2,3-dihydrobenzo[b] [1,4]dioxin-5-yl)amino)-4-((tetrahydrofuran-3-yl)amino)-7H-pyrrolo[2,3-d]pyrimidine-5-carbonitrile]
- IC50 [1]: 301 to 1000 nM
- IC50 [2]: < 100 nM

SMILES: COc1cc(P2(=O)CCN(C3COC3)CC2)ccc1Nc1nc(NC(C)C)c2c(C#N)c[nH]c2n1 [Example 293, 4-(isopropylamino)-2-((2-methoxy-4-(1-(oxetan-3-yl)-4-oxido-1,4-azaphosphinan-4-yl)phenyl)amino)-7H-pyrrolo[2,3-d]pyrimidine-5-carbonitrile]
- IC50 [1]: 101 to 300 nM
- IC50 [2]: < 100 nM

SMILES: CCNc1nc(Nc2ccc(P(C)(C)=O)cc2OC)nc2[nH]cc(C#N)c12 [Example 252, 2-((4-(dimethylphosphoryl)-2-methoxyphenyl)amino)-4-(ethylamino)-7H-pyrrolo[2,3-d]pyrimidine-5-carbonitrile]
- IC50 [1]: 101 to 300 nM
- IC50 [2]: 301 to 1000 nM

SMILES: CC(C)CNc1nc(Nc2ccc(C(=O)N3CCC(N4CCOCC4)CC3)c3c2OCC3)nc2[nH]cc(C#N)c12 [Example 351, 4-(isobutyl-amino)-2-((4-(4-morpholino-piperidine-1-carbonyl)-2,3-dihydro-benzofuran-7-yl)amino)-7H-pyrrolo[2,3-d]pyrimidine-5-carbonitrile]
- IC50 [1]: 301 to 1000 nM
- IC50 [2]: < 100 nM

SMILES: COCCNc1nc(Nc2ccc(P(C)(C)=O)cc2OC)nc2[nH]cc(C#N)c12 [Example 115, 2-((4-(dimethylphosphoryl)-2-methoxyphenyl)amino)-4-((2-methoxyethyl)amino)-7H-pyrrolo[2,3-d]pyrimidine-5-carbonitrile]
- IC50 [1]: 301 to 1000 nM
- IC50 [2]: < 100 nM

SMILES: O=C(c1ccc(Nc2nc(NCC3CCC3)c3c(C(F)(F)F)c[nH]c3n2)c2c1CCO2)N1CCC(N2CCOCC2)CC1 [Example 462, (7-((4-((cyclo-butylmethyl)amino)-5-(trifluoromethyl)-7H-pyrrolo[2,3-d]pyrimidin-2-yl)amino)-2,3-dihydrobenzo-furan-4-yl)(4-morpho-linopiperidin-1-yl)methanone]
- IC50 [1]: 101 to 300 nM
- IC50 [2]: 301 to 1000 nM

SMILES: CNc1nc(Nc2ccc(C(=O)N3CCN(C4COC4)CC3)c3c2OCCO3)nc2[nH]cc(C#N)c12 [Example 280, 4-(methylamino)-2-((8-(4-(oxetan-3-yl)piperazine-1-carbonyl)-2,3-dihydrobenzo[b][1,4]dioxin-5-yl)amino)-7H-pyrrolo[2,3-d]pyrimidine-5-carbonitrile]
- IC50 [1]: 101 to 300 nM
- IC50 [2]: < 100 nM

SMILES: COc1cc(P2(=O)CCN(C3COC3)CC2)ccc1Nc1nc(NC2CCOCC2)c2c(C#N)c[nH]c2n1 [Example 303, 2-((2-methoxy-4-(1-(oxetan-3-yl)-4-oxido-1,4-azaphosphinan-4-yl)phenyl)amino)-4-((tetrahydro-2H-pyran-4-yl)amino)-7H-pyrrolo[2,3-d]pyrimidine-5-carbonitrile]
- IC50 [1]: 301 to 1000 nM
- IC50 [2]: 301 to 1000 nM

SMILES: CC[C@H](C)Nc1nc(Nc2ccc(P3(=O)CCN(C4CC4)CC3)cc2OC)nc2[nH]cc(C#N)c12 [Example 296, (S)-4-(sec-butylamino)-2-((4-(1-cyclopropyl-4-oxido-1,4-azaphosphinan-4-yl)-2-methoxyphenyl)a-mino)-7H-pyrrolo[2,3-d]pyrimidine-5-carbonitrile]
- IC50 [1]: 301 to 1000 nM
- IC50 [2]: 301 to 1000 nM

SMILES: CCCNc1nc(Nc2ccc(P(C)(C)=O)cc2OC)nc2[nH]cc(C(F)(F)F)c12 [Example 369, (3-methoxy-4-((4-(propylamino)-5-(trifluoromethyl)-7H-pyrrolo[2,3-d]pyrimidin-2-yl)amino)phenyl) dimethyl-phosphine oxide]
- IC50 [1]: 101 to 300 nM
- IC50 [2]: < 100 nM
